IC50 and EC50 data for 26 molecules are collected here from patent US12410160B2 (Gilead Sciences, Inc., priority 2021, dated 2025).

As usually defined, the IC50 is the point on the concentration scale where inhibition reaches its midpoint. As usually defined, the EC50 is the concentration needed to bring the measured effect to its halfway point.

Where only a bound is given, the exact number is not on record here.

Test [1] addresses human KHK-C (Homo sapiens (Human), UniProt P50053). The experiment in a line: KHK Biochemical Assay (IC50), ADP-Glo, KHK-C. The note with it: ADP-Glo; average of at least two separate assays. In outline: (§1)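 ADP-Glo luminescence measured ADP made over a 4 h room-temperature reaction of ATP plus fructose, started after 30 min compound–enzyme pre-incubation. Buffer: 50 mM Hepes pH 7.4, 140 mM KCl, 5 mM MgCl2, 0.01% Triton-X. Enzyme was His-tagged, BL21 (DE3)-expressed, Ni-NTA-purified; compounds in 1:3 DMSO dilution series.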
(In general: ADP-Glo first removes unused ATP, then detects ADP through luciferase.)

Test [2] addresses KHK-C expressed in NRK-52E cells (Homo sapiens (Human), UniProt P50053). As to the kind of experiment: KHK-C Cell-based Assay (EC50), NRK CTG, fructose-mediated ATP-depletion.
The target of test [3] is human KHK-A (Homo sapiens (Human), UniProt P50053). As to the kind of experiment: KHK Biochemical Assay (IC50), ADP-Glo, KHK-A. As to conditions: ADP-Glo; average of at least two separate assays. The procedure, abridged: as §1
Sequence of human KHK-A (P50053 other isoform, or with tags, fused parts or gaps): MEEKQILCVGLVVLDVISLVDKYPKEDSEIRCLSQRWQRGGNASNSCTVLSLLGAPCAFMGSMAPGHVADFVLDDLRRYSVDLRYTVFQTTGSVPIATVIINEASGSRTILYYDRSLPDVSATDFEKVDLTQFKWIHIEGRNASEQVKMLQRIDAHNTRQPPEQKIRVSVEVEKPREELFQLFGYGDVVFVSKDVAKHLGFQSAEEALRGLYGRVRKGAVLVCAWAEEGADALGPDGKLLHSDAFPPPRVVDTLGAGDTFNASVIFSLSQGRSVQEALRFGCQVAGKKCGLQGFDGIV

Sequence of KHK-C expressed in NRK-52E cells (P50053 whole entry): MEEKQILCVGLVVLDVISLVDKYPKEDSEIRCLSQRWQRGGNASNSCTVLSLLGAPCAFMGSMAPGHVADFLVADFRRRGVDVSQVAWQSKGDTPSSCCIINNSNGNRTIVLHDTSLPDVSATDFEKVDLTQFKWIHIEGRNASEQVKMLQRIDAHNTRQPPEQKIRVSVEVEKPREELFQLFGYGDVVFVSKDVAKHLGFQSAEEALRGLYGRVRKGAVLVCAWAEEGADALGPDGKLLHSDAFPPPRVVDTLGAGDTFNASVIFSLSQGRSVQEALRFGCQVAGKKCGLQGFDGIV
Sequence of human KHK-C (P50053 whole entry): as above

As to `C[C@H]1CN(c2nc3c(c(-c4ccc(C(N)=O)cc4)n2)CCC3)[C@H]1C` [Example 107, 4-(2-((2S,3S)-2,3-dimethylazetidin-1-yl)-6,7-dihydro-5H-cyclopenta[d]pyrimidin-4-yl)benzamide], the IC50 amounted to 1060 nM in test [1] and 1550 nM in test [3]. Further, the EC50 in test [2] came to 2920 nM.
Turning to `C[C@H]1CCN1c1nc2c(c(-c3cn4cnc(C(N)=O)c4s3)n1)CCC2` [Example 119, (S)-2-(2-(2-methylazetidin-1-yl)-6,7-dihydro-5H-cyclopenta[d]pyrimidin-4-yl)imidazo[5,1-b]thiazole-7-carboxamide], the IC50 in test [1] is 2.4 nM; in test [3], 13.4 nM. In test [2], the EC50 is 6.6 nM.
The like results for `C[C@H]1CCN1c1nc2c(c(-c3ccc(F)c(S(N)(=O)=O)c3)n1)CCC2` [Example 122, (S)-2-fluoro-5-(2-(2-methylazetidin-1-yl)-6,7-dihydro-5H-cyclopenta[d]pyrimidin-4-yl)benzenesulfonamide] were, in that order, 41.8 nM, 44.5 nM and 51.8 nM.
The like results for `Cc1ccc(-c2nc(N3CC[C@@H]3C)nc3c2CCC3)cc1S(N)(=O)=O` [Example 123, (S)-2-methyl-5-(2-(2-methylazetidin-1-yl)-6,7-dihydro-5H-cyclopenta[d]pyrimidin-4-yl)benzenesulfonamide] were, in that order, 30.5 nM, 40.2 nM and 62.4 nM.
The matching figures for `C[C@H]1CCN1c1nc2c(c(-c3ccc(C(N)=O)cc3)n1)CC2` [Example 124, (S)-4-(3-(2-methylazetidin-1-yl)-2,4-diazabicyclo[4.2.0]octa-1,3,5-trien-5-yl)benzamide]: 328 nM, 535 nM and 973 nM.
For `C[C@H]1[C@H](O)CN1c1nc2c(c(-c3ccc(C(N)=O)cc3)n1)CC2` [Example 125], the IC50 was 572 nM in test [1] and 932 nM in test [3]. In test [2], this molecule yielded an EC50 of 3560 nM.
For `C[C@H]1CCN1c1nc2c(c(-c3ccc(OC(F)(F)F)c(S(N)(=O)=O)c3)n1)CCC2` [Example 126, (S)-5-(2-(2-methylazetidin-1-yl)-6,7-dihydro-5H-cyclopenta[d]pyrimidin-4-yl)-2-(trifluoromethoxy)benzenesulfonamide], the IC50 in test [1] stood at 400 nM; in test [3], 406 nM. The same molecule returned a concentration giving a half-maximal response (EC50) in test [2] of 253 nM.
Regarding `C[C@H]1CCN1c1nc2c(c(-c3ccc(C4(O)COC4)cc3)n1)CCC2` [Example 127, (S)-3-(4-(2-(2-methylazetidin-1-yl)-6,7-dihydro-5H-cyclopenta[d]pyrimidin-4-yl)phenyl)oxetan-3-ol], the values for the IC50 in test [1] and in test [3] were 65.5 nM and 99.6 nM, respectively. Moreover, a half-maximal response in test [2] (EC50) required 223 nM.
The matching figures for `C[C@H]1CCN1c1nc(-c2ccc(C(N)=O)cc2)c2c(n1)C(F)(F)CC2` [Example 128, (S)-4-(7,7-difluoro-2-(2-methylazetidin-1-yl)-6,7-dihydro-5H-cyclopenta[d]pyrimidin-4-yl)benzamide]: 2.3 nM, 2.3 nM and 6.3 nM.
The matching figures for `C[C@H]1CCN1c1nc2c(c(-c3cc(S(N)(=O)=O)c(F)cc3F)n1)CCC2` [Example 130, (S)-2,4-difluoro-5-(2-(2-methylazetidin-1-yl)-6,7-dihydro-5H-cyclopenta[d]pyrimidin-4-yl)benzenesulfonamide]: more than 5000 nM, more than 5000 nM and more than 5000 nM.
The like results for `C[C@H]1CCN1c1nc2c(c(-c3ccc4ccc(=O)[nH]c4c3)n1)CCC2` [Example 132, (S)-7-(2-(2-methylazetidin-1-yl)-6,7-dihydro-5H-cyclopenta[d]pyrimidin-4-yl)quinolin-2(1H)-one] were, in that order, 71.8 nM, 97.6 nM and 131 nM.
Consider `C[C@H]1CCN1c1nc2c(c(-c3ccc4ccc(=O)n(CCC(=O)O)c4c3)n1)CCC2` [Example 133, (S)-3-(7-(2-(2-methylazetidin-1-yl)-6,7-dihydro-5H-cyclopenta[d]pyrimidin-4-yl)-2-oxoquinolin-1(2H)-yl)propanoic acid], for which the IC50 in test [1] was 141 nM; in test [3] it was 236 nM. Further, the EC50 in test [2] is more than 5000 nM.
The like results for `C[C@H]1CCN1c1nc2c(c(-c3ccc4c(c3)CC(CC(=O)O)C4)n1)CCC2` (stereo partly drawn) [Example 134, 2-(5-(2-((S)-2-methylazetidin-1-yl)-6,7-dihydro-5H-cyclopenta[d]pyrimidin-4-yl)-2,3-dihydro-1H-inden-2-yl)acetic acid] were, in that order, 89.9 nM, 158 nM and 1030 nM.
The like results for `C[C@H]1CCN1c1nc2c(c(-c3ccc4c(c3)CC(CC(N)=O)C4)n1)CCC2` (stereo partly drawn) [Example 135, 2-(5-(2-((S)-2-methylazetidin-1-yl)-6,7-dihydro-5H-cyclopenta[d]pyrimidin-4-yl)-2,3-dihydro-1H-inden-2-yl)acetamide] were, in that order, 111 nM, 126 nM and 277 nM.
The like results for `C[C@H]1CCN1c1nc2c(c(-c3ccc4c(c3)CC3C(C(=O)O)C43)n1)CCC2` (stereo partly drawn) [Example 136, 4-(2-((S)-2-methylazetidin-1-yl)-6,7-dihydro-5H-cyclopenta[d]pyrimidin-4-yl)-1,1a,6,6a-tetrahydrocyclopropa[a]indene-1-carboxylic acid] were, in that order, 62 nM, 114 nM and 2460 nM.
On to `C[C@H]1CCN1c1nc2c(c(-c3ccc4c(c3)CC(C(=O)O)C4)n1)CCC2` (stereo partly drawn) [Example 139, 5-(2-((S)-2-methylazetidin-1-yl)-6,7-dihydro-5H-cyclopenta[d]pyrimidin-4-yl)-2,3-dihydro-1H-indene-2-carboxylic acid], for which the IC50 in test [1] was determined as 55.3 nM; in test [3], 85.8 nM. For the same molecule, the midpoint of the response in test [2], the EC50, lay at 2490 nM.
Consider `C[C@H]1CCN1c1nc2c(c(-c3ccc4c(c3)CC(C(N)=O)C4)n1)CCC2` (stereo partly drawn) [Example 140, 5-(2-((S)-2-methylazetidin-1-yl)-6,7-dihydro-5H-cyclopenta[d]pyrimidin-4-yl)-2,3-dihydro-1H-indene-2-carboxamide], for which the IC50 was 52.8 nM in test [1] and 28.1 nM in test [3]. In test [2], it took 163 nM to reach a half-maximal effect (EC50).
Take `C[C@@H]1N(c2nc3c(c(-c4ccc(C(N)=O)cc4)n2)CCC3)C[C@@]1(C)O` [Example 141]: the IC50 in test [1] was found to be 290 nM; in test [3], 334 nM. Further, the midpoint of the response in test [2], the EC50, lay at 1260 nM.
As to `NC(=O)c1ccc(-c2nc(N3CCCC3)nc3c2CCC3)cc1` [Example 142, 4-(2-(pyrrolidin-1-yl)-6,7-dihydro-5H-cyclopenta[d]pyrimidin-4-yl)benzamide], the 50% inhibitory concentration (IC50) is 2430 nM in test [1] and 2110 nM in test [3]. In addition, a half-maximal effect in test [2] (EC50) was put at 2040 nM.
The like results for `C[C@H]1CCN1c1nc2c(c(-c3ccc4nc(N)ccc4c3)n1)CCC2` [Example 143, (S)-6-(2-(2-methylazetidin-1-yl)-6,7-dihydro-5H-cyclopenta[d]pyrimidin-4-yl)quinolin-2-amine] were, in that order, 30.6 nM, 21.4 nM and 43.3 nM.
The matching figures for `C[C@H]1CCN1c1nc2c(c(-c3ccc(C(N)=O)c4ccccc34)n1)CCC2` [Example 144, (S)-4-(2-(2-methylazetidin-1-yl)-6,7-dihydro-5H-cyclopenta[d]pyrimidin-4-yl)-1-naphthamide]: 2400 nM, 1690 nM and 2440 nM.
As to `C[C@H]1CCN1c1nc2c(c(-c3ccc4c(c3)C3(CCC4)CC3C(=O)O)n1)CCC2` (stereo partly drawn) [Example 148, 7′-(2-((S)-2-methylazetidin-1-yl)-6,7-dihydro-5H-cyclopenta[d]pyrimidin-4-yl)-3′,4′-dihydro-2′H-spiro[cyclopropane-1,1′-naphthalene]-2-carboxylic acid], the IC50 in test [1] worked out at 59.9 nM; in test [3], 84 nM. Further, in test [2], the EC50 is 653 nM.
The like results for `C[C@H]1CCN1c1nc2c(c(-c3ccc4c(c3)OCCNC4=O)n1)CCC2` [Example 149, (S)-8-(2-(2-methylazetidin-1-yl)-6,7-dihydro-5H-cyclopenta[d]pyrimidin-4-yl)-3,4-dihydrobenzo[f][1,4]oxazepin-5(2H)-one] were, in that order, 6.7 nM, 33.2 nM and 18.8 nM.
Turning to `C[C@H]1CCN1c1nc2c(c(-c3ccc4c(c3)C(=O)NCCO4)n1)CCC2` [Example 150, (S)-7-(2-(2-methylazetidin-1-yl)-6,7-dihydro-5H-cyclopenta[d]pyrimidin-4-yl)-3,4-dihydrobenzo[f][1,4]oxazepin-5(2H)-one], the IC50 in test [1] was 33.1 nM; in test [3], 32.2 nM. The molecule also came in with an EC50 in test [2] of 73.2 nM.
In the case of `C[C@H]1CCN1c1nc2c(c(-c3cc4ccccc4[nH]3)n1)CCC2` [Example 151, (S)-4-(1H-indol-2-yl)-2-(2-methylazetidin-1-yl)-6,7-dihydro-5H-cyclopenta[d]pyrimidine], the IC50 amounted to 3890 nM in test [1] and 4980 nM in test [3]. Besides, the EC50 in test [2] is 1360 nM.
For `C[C@H]1CCN1c1nc2c(c(-c3cc4cc(C(N)=O)ccc4[nH]3)n1)CCC2` [Example 152, (S)-2-(2-(2-methylazetidin-1-yl)-6,7-dihydro-5H-cyclopenta[d]pyrimidin-4-yl)-1H-indole-5-carboxamide], the IC50 was found to be 94 nM in test [1] and 63.6 nM in test [3]. Further, the EC50 in test [2] was 200 nM.
